Where only a bound is given, the exact number is not on record here.

T1 sequence (O60674 849-1124 limits assumed): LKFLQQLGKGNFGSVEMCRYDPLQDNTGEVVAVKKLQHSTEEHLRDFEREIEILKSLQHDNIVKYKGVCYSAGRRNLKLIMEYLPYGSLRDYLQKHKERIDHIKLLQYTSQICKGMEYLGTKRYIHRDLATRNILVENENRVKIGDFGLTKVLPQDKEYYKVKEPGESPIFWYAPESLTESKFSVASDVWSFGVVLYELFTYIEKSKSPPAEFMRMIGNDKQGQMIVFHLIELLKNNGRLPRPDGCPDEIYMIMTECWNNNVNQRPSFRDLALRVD

The first assay has as its target T1, Jak2 (Homo sapiens, UniProt O60674).
T1 construct: The kinase domain of humanJAK2 was amplified from U937mRNA; His tag (from the pFastBac HTc vector; purified on nickel chelate); made in house; host or cells: baculovirus; Sf9 for virus, High Five insect cells for production
The assay is described as follows: JAK kinase assay (ELISA or Alphascreen), JAK2 kinase domain. In kind it is biochemical. To be noted: capacity to inhibit 50% of JAK activity at 20 μM, standard conditions. The method, then:
(§1) For screening purposes, compounds were diluted in 96 well plates at a concentration of 20 μM. Plates were warmed at 37° C. for 30 minutes before assay.
The kinase domain of humanJAK2 was amplified from U937mRNA using the polymerase chain reaction with the following primers: […]
JAK2 PCR products were cloned into the pFastBac HTc expression vector (Gibco®) via the Sal I and Not I sites. The JAK2 plasmid was then transformed into competent DH10Bac cells (Gibco®), and the recombinant baculovirus produced prepared for transfection into Sf9 insect cells.
Baculovirus preparations from each of the JAK family members were infected into five litres of High Five cells (Invitrogen) grown in High Five serum free medium (Invitrogen) to a cell density of approximately 1-2×10^6 cells/ml. Cells are infected with virus at a MOI of 0.8-3.0. Cells were harvested and lysed. […]
Kinase assays were performed in a 96 well capture-based ELISA assay or in 384 well Optiplates (Packard) using an Alphascreen Protein Tyrosine Kinase kit. […] In the ELISA assay tyrosine phosphorylation was quantitated following transfer to an avidin coated ELISA plate using peroxidase-linked anti-phospho-tyrosine antibody PY20. […] The ELISA plates were read on a BMG Fluorostar, the Alphascreen plates were read on a Packard Fusion Alpha. […]
In general terms: An ELISA detects its analyte on a solid surface through an enzyme-linked reagent.
`C=CC(=O)Nc1ccc2ncn(-c3cncc(N[C@@H](C)c4ccccc4)n3)c2c1` [N-[1-(6-([(1S)-1-Phenylethyl]amino]pyrazin-2-yl)-1H-benzimidazol-6-yl)acrylamide]: the Jak2 result was “+ (Compounds that exhibited a capacity to inhibit 50% of JAK activity at a concentration of 20 μM (measured under standard conditions, see Methods), are designated as “+”)”.

The target of another assay is T2, Jak3 (Homo sapiens, UniProt P52333).
T2 construct: The kinase domain of humanJAK3 was amplified from U937mRNA; His tag (from the pFastBac HTb vector; purified on nickel chelate); made in house; host or cells: baculovirus; Sf9 for virus, High Five insect cells for production
T2 sequence (P52333 822-1111 limits assumed): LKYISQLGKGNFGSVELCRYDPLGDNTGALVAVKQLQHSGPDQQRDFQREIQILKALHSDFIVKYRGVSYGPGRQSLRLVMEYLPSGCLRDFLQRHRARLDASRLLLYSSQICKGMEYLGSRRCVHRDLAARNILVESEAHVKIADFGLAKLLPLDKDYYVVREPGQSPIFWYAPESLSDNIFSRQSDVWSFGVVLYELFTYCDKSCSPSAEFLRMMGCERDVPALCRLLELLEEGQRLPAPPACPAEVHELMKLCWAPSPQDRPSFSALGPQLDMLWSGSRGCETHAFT
The assay is described as follows: JAK kinase assay (ELISA or Alphascreen), JAK3 kinase domain. In kind it is biochemical. To be noted: after 20 minute incubation with enzyme (prior to addition of ATP); read-out: apparent “IC50”. On the procedure:
as §1
The kinase domain of humanJAK3 was amplified from U937mRNA using the polymerase chain reaction with the following primers: […]
JAK3 PCR products were cloned into the pFastBac HTb expression vector (Gibco®) via the Xho I and Kpn I sites. The JAK3 plasmid was then transformed into competent DH10Bac cells (Gibco®), and the recombinant baculovirus produced prepared for transfection into Sf9 insect cells.
Baculovirus preparations from each of the JAK family members were infected into five litres of High Five cells (Invitrogen) grown in High Five serum free medium (Invitrogen) to a cell density of approximately 1-2×10^6 cells/ml. Cells are infected with virus at a MOI of 0.8-3.0. Cells were harvested and lysed. JAK kinase domains were purified by affinity chromatography on a Probond (Invitrogen) nickel chelate affinity column.
Kinase assays were performed in a 96 well capture-based ELISA assay or in 384 well Optiplates (Packard) using an Alphascreen Protein Tyrosine Kinase kit. In either case using approximately 1.5 μg of affinity purified PTK domain in the presence of 50 mM HEPES, pH 7.5, 10 mM MgCl2, 150 mM NaCl and 10 μM-1 mM ATP. The biotinylated substrate biotin-EGPWLEEEEEAYGWMDF-NH2 (SEQ ID NO:9) (final concentration 5 μM) was used as substrate. In the ELISA assay tyrosine phosphorylation was quantitated following transfer to an avidin coated ELISA plate using peroxidase-linked anti-phospho-tyrosine antibody PY20. In the Alphascreen assay, Alphascreen phosphotyrosine acceptor beads followed by streptavidin donor beads were added under subdued light. The ELISA plates were read on a BMG Fluorostar, the Alphascreen plates were read on a Packard Fusion Alpha. […] Inhibitors were added in aqueous DMSO, with DMSO concentrations never exceeding 1%.
Regarding `C=CC(=O)Nc1ccc2ncn(-c3cncc(NC(C)(C)C)n3)c2c1` [Example 20, N-{1-[6-(tert-Butylamino)pyrazin-2-yl]-1-H-benzimidazol-6-yl}acrylamide], the IC50 was approximately 40 nM.

The assay is the same for the next values; noted with them: after 90 min pre-incubation; read-out: apparent “IC50”.
Regarding `C=CC(=O)Nc1ccc2ncn(-c3cncc(NC(C)(C)C)n3)c2c1` [Example 20, N-{1-[6-(tert-Butylamino)pyrazin-2-yl]-1-H-benzimidazol-6-yl}acrylamide], the IC50 came to 7 nM.

Staying with this assay, now noted: capacity to inhibit 50% of JAK activity at 20 μM, standard conditions.
The molecule `C=CC(=O)Nc1ccc2ncn(-c3cncc(N[C@@H](C)CC)n3)c2c1` gave an inhibition at 20 µM of more than 50%.
In turn, `C#CC(=O)Nc1ccc2ncn(-c3cncc(NC(C)(C)C)n3)c2c1` showed an inhibition at 20 µM of more than 50%.
Same read-out and setting: next, `C=CC(=O)Nc1ccc2ncn(-c3cncc(N[C@H](C)CC)n3)c2c1`: more than 50%; `C=CC(=O)Nc1ccc2ncn(-c3cncc(NCC4CC4)n3)c2c1`: more than 50%; `C=C(C)C(=O)Nc1ccc2ncn(-c3cncc(NC(C)(C)C)n3)c2c1`: more than 50%.
Same read-out and setting: the same measure for `C=CC(=O)Nc1ccc2ncn(-c3cncc(-c4ccncc4)n3)c2c1`: more than 50%; for `C=CC(=O)Nc1ccc2ncn(-c3cncc(N(C)C)n3)c2c1`: more than 50%; for `C=CC(=O)Nc1ccc2ncn(-c3cncc(-c4cccnc4)n3)c2c1`: more than 50%.
The same measure, in the same setting: next, `C=CC(=O)Nc1ccc2ncn(-c3cncc(N4CCCC4)n3)c2c1`: more than 50%; `C=CC(=O)Nc1ccc2ncn(-c3cncc(-c4ccc(C)o4)n3)c2c1`: more than 50%; `C=CC(=O)Nc1ccc2ncn(-c3cncc(N4CCCCC4)n3)c2c1`: more than 50%.
Consider `C=CC(=O)Nc1ccc2ncn(-c3cncc(N(C)C(C)C)n3)c2c1`, for which the inhibition at 20 µM is more than 50%.
Turning to `C=CC(=O)Nc1ccc2ncn(-c3cncc(N[C@@H](C)c4ccccc4)n3)c2c1` [N-[1-(6-([(1S)-1-Phenylethyl]amino]pyrazin-2-yl)-1H-benzimidazol-6-yl)acrylamide], the inhibition at 20 µM is more than 50%.
Turning to `C=CC(=O)Nc1ccc2ncn(-c3cncc(Nc4ccccc4)n3)c2c1` [N-[1-(6-Anilinopyrazin-2-yl)-1H-benzimidazol-6-yl]acrylamide], the Jak3 result is on record as “+ (Compounds that exhibited a capacity to inhibit 50% of JAK activity at a concentration of 20 μM (measured under standard conditions, see Methods), are designated as “+”)”.
In turn, `C=CC(=O)Nc1ccc2ncn(-c3cncc(Cl)n3)c2c1` [N-[1-(6-Chloropyrazin-2-yl)-1H-benzimidazol-6-yl]acrylamide] showed an inhibition at 20 µM of more than 50%.
Same read-out and setting: the same measure for `C=CC(=O)Nc1ccc2ncn(-c3cncc(-c4ccccc4)n3)c2c1` [N-[1-(6-Phenylpyrazin-2-yl)-1H-benzimidazol-6-yl]acrylamide]: more than 50%.
As for `C=CC(=O)Nc1ccc2ncn(-c3cncc(-c4ccsc4)n3)c2c1` [N-[1-(6-Thien-3-ylpyrazin-2-yl)-1H-benzimidazol-6-yl]acrylamide], the inhibition at 20 µM is more than 50%.
Turning to `C=CC(=O)Nc1ccc2ncn(-c3cncc(N4CCOCC4)n3)c2c1` [N-[1-(6-morpholin-4-ylpyrazin-2-yl)-1H-benzimidazol-6-yl]acrylamide], the inhibition at 20 µM is more than 50%.
`C=CC(=O)Nc1ccc2ncn(-c3cncc(-c4cn[nH]c4)n3)c2c1` [N-{1-[6-(1H-Pyrazol-4-yl)pyrazin-2-yl]-1H-benzimidazol-6-yl}acrylamide] came in with an inhibition at 20 µM of more than 50%.
Still for that read-out and setting: next, `C=CC(=O)Nc1ccc2ncn(-c3cncc(-c4ccc(F)c(Cl)c4)n3)c2c1` [N-{1-[6-(3-Chloro-4-fluorophenyl)pyrazin-2-yl]-1H-benzimidazol-6-yl}acrylamide]: more than 50%; `C=CC(=O)Nc1ccc2ncn(-c3cncc(N4CCN(C)CC4)n3)c2c1` [N-{1-[6-(4-Methylpiperazin-1-yl)pyrazin-2-yl]-1H-benzimidazol-6-yl}acrylamide]: more than 50%; `C=CC(=O)Nc1ccc2ncn(-c3cncc(NC(C)C)n3)c2c1` [N-{1-[6-(Isopropylamino)pyrazin-2-yl]-1H-benzimidazol-6-yl]acrylamide]: more than 50%.
For the molecule `C=CC(=O)Nc1ccc2ncn(-c3cncc(NC)n3)c2c1` [N-{1-[6-(Methylamino)pyrazin-2-yl]-1H-benzimidazol-6-yl}acrylamide], the inhibition at 20 µM is more than 50%.
Molecule `C=CC(=O)Nc1ccc2ncn(-c3cncc(NC(C)(C)C)n3)c2c1` [drawing 98] returned an inhibition at 20 µM of more than 50%.

As a reminder, the IC50 is the point on the concentration scale where inhibition reaches its midpoint. In general, inhibition refers to the relative decrease from the control value, in per cent.

Source of the values: US8329737B2, “Benzimidazoles as selective kinase inhibitors” (YM Biosciences Australia PTY Ltd, priority 2004, dated 2012).
